Test results: PMC7146755, “Structure-Guided Design and In-Cell Target Profiling of a Cell-Active Target Engagement Probe for PARP Inhibitors” (ACS Chemical Biology, 2020)

Experiments:
[1] = molecular target: T1, GST-tagged PARP6 (recombinant) (Homo sapiens, UniProt Q2NL67); assay: competition of PARPYnD photoaffinity labeling, in-gel fluorescence and immunoblot; format: biochemical; conditions: recombinant GST-PARP6 spiked into MDA-MB-468 lysate; […] nm UV
T1 construct: recombinant GST fusion with HRV3C site in the linker, 98 kDa; intact PARP6 71 kDa after cleavage

PARP2 (recombinant) = molecular target: T2, PARP2 (recombinant) (Homo sapiens, UniProt Q9UGN5); assay: fluorescence polarization competition binding
T2 construct: recombinant

[2] = molecular target: T1, GST-tagged PARP6 (recombinant); assay: fluorescence polarization competition binding
Source text: fluorescence polarization competition binding on GST-tagged PARP6 (recombinant) | IC50 of PARPYnD for PARP6 as determined by the in vitro binding assay

PARP1 (recombinant) = molecular target: T3, PARP1 (recombinant) (Homo sapiens, UniProt P09874); assay: fluorescence polarization competition binding
T3 construct: recombinant
T3 sequence (P09874 2-1014): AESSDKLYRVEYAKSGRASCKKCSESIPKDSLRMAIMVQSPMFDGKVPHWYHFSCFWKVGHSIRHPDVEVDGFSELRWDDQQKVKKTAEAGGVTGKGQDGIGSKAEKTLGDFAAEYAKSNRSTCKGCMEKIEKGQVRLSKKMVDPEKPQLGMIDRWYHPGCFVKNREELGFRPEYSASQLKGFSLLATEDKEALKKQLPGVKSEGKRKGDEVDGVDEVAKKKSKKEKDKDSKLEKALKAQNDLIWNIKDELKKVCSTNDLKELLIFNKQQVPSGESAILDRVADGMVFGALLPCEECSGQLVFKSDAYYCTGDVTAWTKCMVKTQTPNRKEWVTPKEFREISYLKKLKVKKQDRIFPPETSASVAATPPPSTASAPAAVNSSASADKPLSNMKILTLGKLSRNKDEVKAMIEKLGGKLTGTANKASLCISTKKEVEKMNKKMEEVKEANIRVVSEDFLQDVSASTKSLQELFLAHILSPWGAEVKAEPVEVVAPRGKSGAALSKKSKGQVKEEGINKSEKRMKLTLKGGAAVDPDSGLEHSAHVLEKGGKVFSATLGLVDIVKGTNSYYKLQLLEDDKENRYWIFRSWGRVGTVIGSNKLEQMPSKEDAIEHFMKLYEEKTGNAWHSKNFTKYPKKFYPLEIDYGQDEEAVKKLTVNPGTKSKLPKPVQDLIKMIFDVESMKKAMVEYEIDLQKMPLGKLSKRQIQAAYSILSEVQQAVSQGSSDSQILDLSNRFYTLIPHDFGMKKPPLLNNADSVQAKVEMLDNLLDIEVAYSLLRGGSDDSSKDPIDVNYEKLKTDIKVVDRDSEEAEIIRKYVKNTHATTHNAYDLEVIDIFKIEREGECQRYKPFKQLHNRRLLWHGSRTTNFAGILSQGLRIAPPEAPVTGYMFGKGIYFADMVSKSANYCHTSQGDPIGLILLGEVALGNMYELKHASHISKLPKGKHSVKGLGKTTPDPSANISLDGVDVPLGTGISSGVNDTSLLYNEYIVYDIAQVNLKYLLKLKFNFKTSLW

T1 sequence (Q2NL67 whole entry, the tested form may be a part): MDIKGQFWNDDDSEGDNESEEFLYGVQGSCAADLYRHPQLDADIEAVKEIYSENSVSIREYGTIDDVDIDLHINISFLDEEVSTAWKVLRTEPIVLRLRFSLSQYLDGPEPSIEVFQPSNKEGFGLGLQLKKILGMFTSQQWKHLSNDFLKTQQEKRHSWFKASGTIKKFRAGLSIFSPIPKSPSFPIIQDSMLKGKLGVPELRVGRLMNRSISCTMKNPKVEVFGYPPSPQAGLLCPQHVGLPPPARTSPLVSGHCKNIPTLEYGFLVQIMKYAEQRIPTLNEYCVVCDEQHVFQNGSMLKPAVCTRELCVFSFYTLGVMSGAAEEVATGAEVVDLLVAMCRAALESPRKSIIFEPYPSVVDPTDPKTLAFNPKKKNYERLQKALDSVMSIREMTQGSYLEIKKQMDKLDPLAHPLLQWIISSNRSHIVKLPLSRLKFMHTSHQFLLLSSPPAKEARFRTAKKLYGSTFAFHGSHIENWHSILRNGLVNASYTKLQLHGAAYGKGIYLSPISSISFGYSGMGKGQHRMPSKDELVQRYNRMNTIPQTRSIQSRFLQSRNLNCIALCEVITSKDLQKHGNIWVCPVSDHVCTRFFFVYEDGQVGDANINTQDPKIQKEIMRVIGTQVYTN
T2 sequence (Q9UGN5 whole entry): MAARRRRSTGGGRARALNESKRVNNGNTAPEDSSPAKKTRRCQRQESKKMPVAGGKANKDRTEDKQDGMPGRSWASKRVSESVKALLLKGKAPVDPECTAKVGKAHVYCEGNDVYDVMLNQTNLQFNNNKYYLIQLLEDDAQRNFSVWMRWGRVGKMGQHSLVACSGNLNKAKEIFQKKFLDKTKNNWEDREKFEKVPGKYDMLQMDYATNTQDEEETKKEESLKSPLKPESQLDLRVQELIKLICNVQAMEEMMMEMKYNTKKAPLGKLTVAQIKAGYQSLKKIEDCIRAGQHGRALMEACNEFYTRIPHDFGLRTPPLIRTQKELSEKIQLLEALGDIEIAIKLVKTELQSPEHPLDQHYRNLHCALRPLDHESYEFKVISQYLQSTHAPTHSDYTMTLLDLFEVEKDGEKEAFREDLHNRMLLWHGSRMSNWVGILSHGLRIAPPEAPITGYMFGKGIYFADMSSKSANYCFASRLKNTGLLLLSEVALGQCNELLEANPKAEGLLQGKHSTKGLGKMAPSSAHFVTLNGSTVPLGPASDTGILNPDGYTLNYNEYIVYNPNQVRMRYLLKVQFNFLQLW

| IC50 (PARP2 (recombinant)) | IC50 [2] | IC50 (PARP1 (recombinant)) | SMILES | competition of PARPYnD photoaffinity labeling, in-gel fluorescence and immunoblo [1] |
| --- | --- | --- | --- | --- |
|  |  |  | C[C@H]1Cn2c(nnc2C(C)(F)F)CN1C(=O)c1cccc(C(F)(F)c2n[nH]c(=O)c3ccccc23)c1 [AZ0108] | which was depleted by PARP6 inhibitor AZ0108 |
| 6 nM | 230 nM | 38 nM | C#CCCC1(CCC(=O)Nc2cnc(N3CCN(C(=O)c4cccc(Cc5n[nH]c(=O)c6ccccc56)c4)CC3)c(C#N)c2)N=N1 [PARPYnD] |  |
